Reference: PubChem BioAssay AID248 (DTP/NCI, 2004)
“And” between values parts separate entries of the source, which are not always exact repeats. Identical values can stand only once. Toxic doses and inconclusive results are not listed. No stated cut-off is given here; in the data, active means T/C of 150% or more; inactive means T/C below 125%.

System: L1210 leukemia ip in BDF1 mice, survival T/C
Assay: NCI In Vivo Anticancer Drug Screen. Data for tumor model L1210 Leukemia (intraperitoneal) in B6D2F1 (BDF1) mice
Conditions: endpoint: mean survival time, higher = longer survival
Outline: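 Tumor was transplanted into mice, which were then dosed with test compound or vehicle alone. Survival was recorded for each group, and the treated figure was expressed relative to the control figure.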

[1] = dose: 100.0 mg/kg/injection, schedule: Q01DX001 (ip), vehicle: Klucel (hydroxypropylcellulose) (HPC)
[2] = dose: 200.0 mg/kg/injection, schedule: Q01DX001 (ip), vehicle: Klucel (hydroxypropylcellulose) (HPC)
[3] = dose: 25.0 mg/kg/injection, schedule: Q01DX009 (ip), vehicle: Klucel (hydroxypropylcellulose) (HPC)
[4] = dose: 50.0 mg/kg/injection, schedule: Q01DX009 (ip), vehicle: Klucel (hydroxypropylcellulose) (HPC)
[5] = dose: 100.0 mg/kg/injection, schedule: Q04DX002 (ip), vehicle: Klucel (hydroxypropylcellulose) (HPC)

Measured: T/C

CC(C)(C)c1cc(C(C)(C)C)nc(C(C)(C)C)c1
inactive: [1] 98 % of control | [2] 98 % of control

CN=C(c1ccc(NC(=O)c2ccc(C(=O)Nc3ccc(C(=NC)N(C)C(C)=O)cc3)c(Cl)c2)cc1)N(C)C(C)=O
inactive: dose: 25.0 mg/kg/injection, schedule: Q01DX015 (ip), vehicle: methylcellulose (MC) 95 % of control | dose: 50.0 mg/kg/injection, schedule: Q01DX015 (ip), vehicle: methylcellulose (MC) 93 % of control | dose: 75.0 mg/kg/injection, schedule: Q01DX015 (ip), vehicle: methylcellulose (MC) 96 % of control | dose: 200.0 mg/kg/injection, schedule: Q01DX015 (ip), vehicle: methylcellulose (MC) 93 % of control

CCSCCC(N)C(=O)O (stereo not drawn)
inactive: dose: 10.25 mg/kg/injection, schedule: Q01DX Z (ip), vehicle: carboxymethylcellulose (CMC) 97 % of control | dose: 18.75 mg/kg/injection, schedule: Q01DX Z (ip), vehicle: carboxymethylcellulose (CMC) 91 % of control | dose: 20.5 mg/kg/injection, schedule: Q01DX Z (ip), vehicle: carboxymethylcellulose (CMC) 113 % of control | dose: 37.5 mg/kg/injection, schedule: Q01DX Z (ip), vehicle: carboxymethylcellulose (CMC) 93 % of control | dose: 41.0 mg/kg/injection, schedule: Q01DX Z (ip), vehicle: carboxymethylcellulose (CMC) 103 % of control | dose: 75.0 mg/kg/injection, schedule: Q01DX Z (ip), vehicle: carboxymethylcellulose (CMC) 96 % of control | dose: 82.0 mg/kg/injection, schedule: Q01DX Z (ip), vehicle: carboxymethylcellulose (CMC) 103 % of control | dose: 100.0 mg/kg/injection, schedule: Q01DX001 (ip), vehicle: carboxymethylcellulose (CMC) 102 % of control | dose: 150.0 mg/kg/injection, schedule: Q01DX Z (ip), vehicle: carboxymethylcellulose (CMC) 100 % of control | dose: 200.0 mg/kg/injection, schedule: Q01DX001 (ip), vehicle: carboxymethylcellulose (CMC) 107 % of control | dose: 400.0 mg/kg/injection, schedule: Q01DX001 (ip), vehicle: carboxymethylcellulose (CMC) 95 % of control

O=C(c1ccccc1)C(C(NC1CCCCC1)c1ccccc1)N1CCCCC1 (stereo not drawn)
inactive: [1] 95 % of control | [2] 92 % of control | dose: 400.0 mg/kg/injection, schedule: Q01DX001 (ip), vehicle: Klucel (hydroxypropylcellulose) (HPC) 92 % of control

CCOC(=O)c1ncn(C2OC(CO)C(O)C2O)c1N (stereo not drawn)
inactive: dose: 12.5 mg/kg/injection, schedule: Q01DX005 (ip), vehicle: saline with Tween-80 90 % of control | dose: 25.0 mg/kg/injection, schedule: Q01DX005 (ip), vehicle: saline with Tween-80 100 % of control | dose: 50.0 mg/kg/injection, schedule: Q01DX005 (ip), vehicle: saline with Tween-80 90 % of control | dose: 100.0 mg/kg/injection, schedule: Q01DX005 (ip), vehicle: saline with Tween-80 92 % of control | dose: 200.0 mg/kg/injection, schedule: Q01DX005 (ip), vehicle: saline with Tween-80 93 % of control

CCNc1ccc(/C=C2\C=Cc3ccccc32)cc1
inactive: [3] 96 % of control | [4] 102 % of control | dose: 75.0 mg/kg/injection, schedule: Q01DX001 (ip), vehicle: olive oil, sesame oil, peanut oil 103 % of control | dose: 100.0 mg/kg/injection, schedule: Q01DX009 (ip), vehicle: Klucel (hydroxypropylcellulose) (HPC) 96 % of control | dose: 150.0 mg/kg/injection, schedule: Q01DX001 (ip), vehicle: olive oil, sesame oil, peanut oil 108 % of control

ClC(Cl)(Cl)c1cccc(C(Cl)(Cl)Cl)n1
inactive: dose: 100.0 mg/kg/injection, schedule: Q04DX003 (sc), vehicle: olive oil, sesame oil, peanut oil 97 % of control and 103 % of control | dose: 200.0 mg/kg/injection, schedule: Q04DX003 (sc), vehicle: olive oil, sesame oil, peanut oil 97 % of control and 103 % of control | dose: 400.0 mg/kg/injection, schedule: Q04DX003 (sc), vehicle: olive oil, sesame oil, peanut oil 100 % of control and 101 % of control

CCCCCCCCCCCCCCCCCC(=O)N/N=C/c1ccccc1
inactive: dose: 100.0 mg/kg/injection, schedule: Q01DX009 (ip), vehicle: other 91 % of control | dose: 200.0 mg/kg/injection, schedule: Q01DX009 (ip), vehicle: other 89 % of control | dose: 400.0 mg/kg/injection, schedule: Q01DX009 (ip), vehicle: other 105 % of control

COc1ccc2c(c1)CSC(c1ccccc1)=C2
inactive: dose: 25.0 mg/kg/injection, schedule: Q04DX002 (ip), vehicle: Klucel (hydroxypropylcellulose) (HPC) 98 % of control | dose: 50.0 mg/kg/injection, schedule: Q04DX002 (ip), vehicle: Klucel (hydroxypropylcellulose) (HPC) 120 % of control | [5] 98 % of control

CC(=O)c1cccc(NC(=O)COc2cc(Cl)c(Cl)cc2Cl)c1
inactive: [5] 106 % of control | dose: 200.0 mg/kg/injection, schedule: Q04DX002 (ip), vehicle: Klucel (hydroxypropylcellulose) (HPC) 113 % of control | dose: 400.0 mg/kg/injection, schedule: Q04DX002 (ip), vehicle: Klucel (hydroxypropylcellulose) (HPC) 102 % of control

CC1CCCN(C(=O)CCCCl)C1 (stereo not drawn)
inactive: dose: 100.0 mg/kg/injection, schedule: Q04DX002 (ip), vehicle: saline 96 % of control | dose: 200.0 mg/kg/injection, schedule: Q04DX002 (ip), vehicle: saline 99 % of control | dose: 400.0 mg/kg/injection, schedule: Q04DX002 (ip), vehicle: saline 99 % of control

CS(=O)(=O)OCC1(c2ccccc2)CCCCC1
inactive: dose: 100.0 mg/kg/injection, schedule: Q01DX001 (sc), vehicle: olive oil, sesame oil, peanut oil 101 % of control | dose: 200.0 mg/kg/injection, schedule: Q01DX001 (sc), vehicle: olive oil, sesame oil, peanut oil 103 % of control | dose: 400.0 mg/kg/injection, schedule: Q01DX001 (sc), vehicle: olive oil, sesame oil, peanut oil 108 % of control

CCOC(=O)C(CC)(OO)c1ccncc1Br (stereo not drawn)
inactive: dose: 25.0 mg/kg/injection, schedule: Q01DX001 (ip), vehicle: Klucel (hydroxypropylcellulose) (HPC) 101 % of control | dose: 50.0 mg/kg/injection, schedule: Q01DX001 (ip), vehicle: Klucel (hydroxypropylcellulose) (HPC) 104 % of control | dose: 50.0 mg/kg/injection, schedule: Q04DX003 (ip), vehicle: Klucel (hydroxypropylcellulose) (HPC) 101 % of control | [1] 100 % of control and 101 % of control | dose: 100.0 mg/kg/injection, schedule: Q04DX003 (ip), vehicle: Klucel (hydroxypropylcellulose) (HPC) 91 % of control | dose: 200.0 mg/kg/injection, schedule: Q04DX003 (ip), vehicle: Klucel (hydroxypropylcellulose) (HPC) 92 % of control

Cc1cccc(C(=O)O)n1
inactive: dose: 100.0 mg/kg/injection, schedule: Q01DX009 (ip), vehicle: saline 103 % of control | dose: 100.0 mg/kg/injection, schedule: Q04DX003 (ip), vehicle: saline 104 % of control | dose: 200.0 mg/kg/injection, schedule: Q01DX009 (ip), vehicle: saline 113 % of control | dose: 200.0 mg/kg/injection, schedule: Q04DX003 (ip), vehicle: saline 101 % of control | dose: 400.0 mg/kg/injection, schedule: Q01DX009 (ip), vehicle: saline 93 % of control | dose: 400.0 mg/kg/injection, schedule: Q04DX003 (ip), vehicle: saline 95 % of control

O=C1C=CC(=O)C(c2ccccc2)=C1
inactive: dose: 6.0 mg/kg/injection, schedule: Q04DX003 (ip), vehicle: Klucel (hydroxypropylcellulose) (HPC) 95 % of control | dose: 12.0 mg/kg/injection, schedule: Q01DX001 (ip), vehicle: saline 104 % of control | dose: 12.0 mg/kg/injection, schedule: Q01DX009 (ip), vehicle: Klucel (hydroxypropylcellulose) (HPC) 90 % of control | dose: 12.0 mg/kg/injection, schedule: Q04DX003 (ip), vehicle: Klucel (hydroxypropylcellulose) (HPC) 98 % of control | dose: 25.0 mg/kg/injection, schedule: Q01DX001 (ip), vehicle: saline 100 % of control | [3] 100 % of control | dose: 25.0 mg/kg/injection, schedule: Q04DX003 (ip), vehicle: Klucel (hydroxypropylcellulose) (HPC) 98 % of control | [4] 100 % of control
